# Reference: ChEMBL document CHEMBL2424533, “Design and regioselective synthesis of trifluoromethylquinolone derivatives as potent antimicrobial agents” (2013)
# Activity calls are given as the source filed them. The calls are words filed in the database; no cut-off is given here.
# Legend:
# Pseudomonas aeruginosa [1] = test: Antimicrobial activity against Pseudomonas aeruginosa MTCC 4673 at 50 ug/mL after 12 hrs by well diffusion method; type: functional; settings: for zone of inhibition at 50 µg/mL: MTCC 4673, 12 h, read-out: DIZ
# Candida albicans [2] = test: Antimicrobial activity against Candida albicans MTCC 183 at 100 ug/mL after 12 hrs by well diffusion method; type: functional; settings: for zone of inhibition at 100 µg/mL: MTCC 183, 12 h, read-out: DIZ
# [3] = tested on: Mycolicibacterium smegmatis; test: Antimicrobial activity against Mycobacterium smegmatis MTCC 943 after 12 hrs by well diffusion method; type: functional; settings: MTCC 943, 12 h
# Salmonella typhimurium [4] = test: Antimicrobial activity against Salmonella typhimurium MTCC 3732 at 50 ug/mL after 12 hrs by well diffusion method; type: functional; settings: for diameter of the inhibition zone (DIZ): Salmonella enterica subsp. enterica serovar Typhimurium; for zone of inhibition at 50 µg/mL: Salmonella enterica, MTCC 3732, 12 h, read-out: DIZ
# Pseudomonas aeruginosa [5] = test: Antimicrobial activity against Pseudomonas aeruginosa MTCC 4673 after 12 hrs by well diffusion method; type: functional; settings: MTCC 4673, 12 h
# Candida albicans [6] = test: Antimicrobial activity against Candida albicans MTCC 183 at 50 ug/mL after 12 hrs by well diffusion method; type: functional; settings: for zone of inhibition at 50 µg/mL: MTCC 183, 12 h, read-out: DIZ
# Staphylococcus aureus [7] = test: Antimicrobial activity against Staphylococcus aureus MTCC 3160 at 100 ug/mL after 12 hrs by well diffusion method; type: functional; settings: for zone of inhibition at 100 µg/mL: MTCC 3160, 12 h, read-out: DIZ
# [8] = tested on: Mycolicibacterium smegmatis; test: Antimicrobial activity against Mycobacterium smegmatis MTCC 943 at 50 ug/mL after 12 hrs by well diffusion method; type: functional; settings: for zone of inhibition at 50 µg/mL: MTCC 943, 12 h, read-out: DIZ
# Staphylococcus aureus [9] = settings: MTCC 3160, 50 ug/mL
# Description: Antimicrobial activity against Staphylococcus aureus MTCC 3160 at 50 ug/mL after 12 hrs by well diffusion method
# Salmonella typhimurium [10] = test: Antimicrobial activity against Salmonella typhimurium MTCC 3732 after 12 hrs by well diffusion method; type: functional, Salmonella enterica subsp. enterica serovar Typhimurium; settings: Salmonella enterica, MTCC 3732, 12 h
# Candida albicans [11] = test: Antimicrobial activity against Candida albicans MTCC 183 after 12 hrs by well diffusion method; type: functional; settings: MTCC 183, 12 h
# [12] = tested on: Mycolicibacterium smegmatis; test: Antimicrobial activity against Mycobacterium smegmatis MTCC 943 at 100 ug/mL after 12 hrs by well diffusion method; type: functional; settings: for zone of inhibition at 100 µg/mL: MTCC 943, 12 h, read-out: DIZ
# Salmonella typhimurium [13] = test: Antimicrobial activity against Salmonella typhimurium MTCC 3732 at 100 ug/mL after 12 hrs by well diffusion method; type: functional; settings: for diameter of the inhibition zone (DIZ): Salmonella enterica subsp. enterica serovar Typhimurium; for zone of inhibition at 100 µg/mL: Salmonella enterica, MTCC 3732, 12 h, read-out: DIZ
# Pseudomonas aeruginosa [14] = test: Antimicrobial activity against Pseudomonas aeruginosa MTCC 4673 at 100 ug/mL after 12 hrs by well diffusion method; type: functional; settings: for zone of inhibition at 100 µg/mL: MTCC 4673, 12 h, read-out: DIZ
# Staphylococcus aureus [15] = test: Antimicrobial activity against Staphylococcus aureus MTCC 3160 after 12 hrs by well diffusion method; type: functional; settings: MTCC 3160, 12 h
# Penicillium chrysogenum = test: Antimicrobial activity against Penicillium chrysogenum MTCC 6795 at 50 to 100 ug/mL after 48 hrs by well diffusion method; type: functional, organism-based
SMILES,zone of inhibition at 50 µg/mL (Pseudomonas aeruginosa [1]) [mm],zone of inhibition at 100 µg/mL (Candida albicans [2]) [mm],MIC [3] [µg/mL],diameter of the inhibition zone (DIZ) (Salmonella typhimurium [4]),MIC (Pseudomonas aeruginosa [5]) [µg/mL],diameter of the inhibition zone (DIZ) (Staphylococcus aureus [7]),diameter of the inhibition zone (DIZ) [8],DIZ (Staphylococcus aureus [9]),MIC (Salmonella typhimurium [10]) [µg/mL],MIC (Candida albicans [11]) [µg/mL],diameter of the inhibition zone (DIZ) [12],diameter of the inhibition zone (DIZ) (Salmonella typhimurium [13]),zone of inhibition at 100 µg/mL (Pseudomonas aeruginosa [14]) [mm],MIC (Staphylococcus aureus [15]) [µg/mL],diameter of the inhibition zone (DIZ) (Pseudomonas aeruginosa [1]),diameter of the inhibition zone (DIZ) (Candida albicans [2]),diameter of the inhibition zone (DIZ) (Candida albicans [6]),diameter of the inhibition zone (DIZ) (Pseudomonas aeruginosa [14]),zone of inhibition at 100 µg/mL (Staphylococcus aureus [7]) [mm],zone of inhibition at 100 µg/mL [12] [mm],further results
N#Cc1ccc(Cn2cc(C(=O)O)c(=O)c3ccc(C(F)(F)F)cc32)cc1,8,8.33,> 100,inactive,25,inactive,inactive,inactive,> 100,50,inactive,inactive,8,> 100,,,,,,,zone of inhibition at 50 µg/mL (Candida albicans [6]): 7.6 mm
C#CCn1cc(C(=O)O)c(=O)c2cccc(C(F)(F)F)c21,,,,inactive,,inactive,inactive,inactive,,,inactive,inactive,,,inactive,inactive,inactive,inactive,,,
NNC(=O)c1cn(Cc2ccc(Cl)cc2Cl)c2c(C(F)(F)F)cccc2c1=O,8,,> 100,,25,,inactive,inactive,25,> 100,inactive,,8,100,,inactive,inactive,,9,,zone of inhibition at 50 µg/mL (Salmonella typhimurium [4]): 11.3 mm; zone of inhibition at 100 µg/mL (Salmonella typhimurium [13]): 12 mm; Activity (Penicillium chrysogenum): inactive
C#CCn1cc(C(=O)O)c(=O)c2ccc(C(F)(F)F)cc21,,12,100,,> 100,,inactive,inactive,25,25,,,,100,inactive,,,inactive,10,7,zone of inhibition at 50 µg/mL (Salmonella typhimurium [4]): 8 mm; zone of inhibition at 50 µg/mL (Candida albicans [6]): 12 mm; zone of inhibition at 100 µg/mL (Salmonella typhimurium [13]): 8 mm
CCOC(=O)c1cn(Cc2ccc(Cl)cc2Cl)c2cc(C(F)(F)F)ccc2c1=O,,,,inactive,,inactive,inactive,inactive,,,inactive,inactive,,,inactive,inactive,inactive,inactive,,,
OC(Cn1cncn1)(Cn1cncn1)c1ccc(F)cc1F [FLUCONAZOLE],,29,,,,,,,,< 10,,,,,,,,,,,zone of inhibition at 50 µg/mL (Candida albicans [6]): 26.3 mm
NNC(=O)c1cn(Cc2ccc(Cl)cc2Cl)c2cc(C(F)(F)F)ccc2c1=O,8,7,25,inactive,25,,,inactive,> 100,100,,inactive,8,100,,,inactive,,8,9,zone of inhibition at 50 µg/mL [8]: 9 mm
C#CCn1cc(C(=O)NN)c(=O)c2cccc(C(F)(F)F)c21,,,,inactive,,inactive,inactive,inactive,,,inactive,inactive,,,inactive,inactive,inactive,inactive,,,
N#Cc1ccc(Cn2cc(C(=O)NN)c(=O)c3cccc(C(F)(F)F)c32)cc1,8,,50,inactive,25,,,inactive,> 100,> 100,,inactive,8,100,,inactive,inactive,,8,8,zone of inhibition at 50 µg/mL [8]: 7.3 mm; Activity (Penicillium chrysogenum): inactive
O=C(O)c1cn(Cc2ccc(Cl)cc2Cl)c2c(C(F)(F)F)cccc2c1=O,13.6,9,25,inactive,25,,,inactive,> 100,50,,inactive,14,100,,,,,9,12,zone of inhibition at 50 µg/mL (Candida albicans [6]): 7 mm; zone of inhibition at 50 µg/mL [8]: 11 mm
C#CCn1cc(C(=O)OCC)c(=O)c2cccc(C(F)(F)F)c21,,,,inactive,,inactive,inactive,inactive,,,inactive,inactive,,,inactive,inactive,inactive,inactive,,,
CCOC(=O)c1cn(Cc2ccc(Cl)cc2Cl)c2c(C(F)(F)F)cccc2c1=O,7,,50,inactive,50,,,inactive,> 100,> 100,,inactive,7,100,,inactive,inactive,,9,8,zone of inhibition at 50 µg/mL [8]: 7 mm; Activity (Penicillium chrysogenum): inactive
CCOC(=O)c1cn(Cc2ccc(C#N)cc2)c2c(C(F)(F)F)cccc2c1=O,,,,inactive,,inactive,inactive,inactive,,,inactive,inactive,,,inactive,inactive,inactive,inactive,,,
O=C(O)c1cn(Cc2ccc(Cl)cc2Cl)c2cc(C(F)(F)F)ccc2c1=O,,7,> 100,inactive,> 100,,inactive,inactive,> 100,50,inactive,inactive,,100,inactive,,inactive,inactive,10,,
C#CCn1cc(C(=O)OCC)c(=O)c2ccc(C(F)(F)F)cc21,7,8.33,100,,50,,inactive,inactive,25,100,,,8,100,,,inactive,,9,9,zone of inhibition at 50 µg/mL (Salmonella typhimurium [4]): 10.3 mm; zone of inhibition at 100 µg/mL (Salmonella typhimurium [13]): 11 mm
N#Cc1ccc(Cn2cc(C(=O)O)c(=O)c3cccc(C(F)(F)F)c32)cc1,8,8,> 100,inactive,25,,inactive,inactive,> 100,100,inactive,inactive,8,100,,,inactive,,8,,
